Values of other authors in patent US5006329A, “Radioactive tagged compounds and method for the treatment of metastatic bone cancer” (priority 1989, dated 1991).

What was measured:
[1] = tested on: malignant bone tissue; conditions: tumor vs normal bone
[2] = for high energy beta emissions: e.g.
[3] = tested on: bone cancer; conditions: HMDP with Samarium-153 label
[4] = tested on: bone marrow; conditions: after treatment of a patient; reported
[5] = tested on: metastatic bone cancer; conditions: over 100 patients

| Molecule | accretion rate of tumor compared with normal bone [1] | half-life (radioactive) [2] | high energy beta emissions [2] | safety with respect to healthy bone marrow tissue [3] | effectiveness in treating the malignancy ([3]; preliminary results) | blood profile changes [4] | degree of malignancy [5] | dose of radioactivity to bone marrow [5] | pain [5] | effectiveness in treating the cancer ([5]; Dr. Ralph Robinson) |
| --- | --- | --- | --- | --- | --- | --- | --- | --- | --- | --- |
| O=P([O-])([O-])CP(=O)(O)O.[Na+].[Na+] [MDP, disodium methylene-diphosphonate] | substantially higher than normal bone | – | – | – | – | – | – | – | – | – |
| [153Sm] [Samarium-153] | – | two | 600-700 KeV | indeterminate | promising | blood profile changes occur | – | – | – | – |
| Strontium-89 | – | – | 800 KeV | – | – | blood profile changes occur | reduced | unacceptably high | reduced | acceptable |
